{
  "source": "patent US6689399B1",
  "about": "“Transdermal delivery of an anti-inflammatory composition” (priority 2000, dated 2004)",
  "origin": "cited, not measured here",
  "key": {"[1]": {"conditions": "single trial, 0.075% capsaicin cream three or four times daily for three weeks; 4/16; placebo 6%"}, "[2]": {"conditions": "four trials, 0.025% capsaicin cream four times daily for 6-8 weeks; placebo 42%"}, "[3]": {"conditions": "four trials, 0.075% capsaicin cream four times daily for 4-8 weeks; placebo 49%"}, "[4]": {"conditions": "single trial, 0.075% capsaicin cream four times daily for six weeks; 5/13; placebo 10%"}, "[5]": {"conditions": "three trials, capsaicin cream (two 0.025%, one 0.075%) four times daily for four weeks; placebo 16%"}},
  "data": [
    {"smiles": "COc1cc(CNC(=O)CCCC/C=C/C(C)C)ccc1O", "note": "[capsaicin, trans-8-methyl-N-vanillyl-6-nonenamide]", "values": [
      {"measurement": "patients reporting pain relief, postherpetic neuralgia", "setting": "[1]", "result": 25, "unit": "%"},
      {"measurement": "patients responding to capsaicin, psoriasis", "setting": "[2]", "result": 68, "unit": "%"},
      {"measurement": "patients responding to capsaicin, diabetic neuropathy", "setting": "[3]", "result": 73, "unit": "%"},
      {"measurement": "patients reporting pain relief, postmastectomy pain", "setting": "[4]", "result": 38, "unit": "%"},
      {"measurement": "patients responding to capsaicin, osteoarthritis", "setting": "[5]", "result": 45, "unit": "%"}
    ]}
  ]
}
